Marks after values point to notes of the source that are not given here.
Tests used:
[1] = system: 3T3-L1 adipocytes; experiment: Lipogenesis in 3T3-L1 adipocytes (Oil Red O / BODIPY); assay type: cell-based, murine
Protocol: Prior to experiments, cells were cultured in DMEM containing 10% FBS-HI added 50 units penicillin/ml and 50 μg streptomycin/ml, and maintained in log phase prior to experimental setup. Cells were grown in a 5% CO2 humidified incubator at 37° C. Components of the pre-confluent medium included (1) 10% FBS/DMEM containing 4.5 g glucose/L; (2) 50 U/ml penicillin; and (3) 50 μg/ml streptomycin. Growth medium was made by adding 50 ml of heat inactivated FBS and 5 ml of penicillin/streptomycin to 500 ml DMEM. This medium was stored at 4° C. Before use, the medium was warmed to 37° C. in a water bath.
3T3-T1 cells were seeded at an initial density of 6×10^4 cells/cm^2 in 24-well plates. For two days, the cells were allowed grow to reach confluence. Following confluence, the cells were forced to differentiate into adipocytes by the addition of differentiation medium; this medium consisted of (1) 10% FBS/DMEM (high glucose); (2) 0.5 mM methylisobutylxanthine; (3) 0.5 μM dexamethasone and (4) 10 μg/ml insulin (MDI medium). After three days, the medium was changed to post-differentiation medium consisting of 10 μg/ml insulin in 10% FBS/DMEM.
Whenever fresh media were added, fresh test material was also added.
Monolayer cells were washed with PBS (phosphate buffered saline, Mediatech) and fixed with 10% formaldehyde for ten minutes. Fixed cells were stained with an Oil Red O working solution of three parts 0.6% Oil Red O/isopropanol stock solution and two parts water for one hour and the excess stain was washed once with water. The resulting stained oil droplets were extracted from the cells with isopropanol and quantified by spectrophotometric analysis at 540 nm (MEL312e BIO-KINETICS READER, Bio-Tek Instruments, Winooski, Vt.).
Briefly, media were removed and cells were washed once with non-sterile PBS. […] After 15 min on an orbital shaker (DS-500, VWR Scientific Products, South Plainfield, N.J.) at ambient temperature, the cells were washed with 100 μl PBS followed by the addition of 100 μl PBS for reading for spectrofluorometric determination of BODIPY incorporation into the cells. […]

[2] = Collagen induced rheumatoid arthritis murine model, arthritic index; assay type: in vivo, mouse; conditions: 10 mg/kg
Protocol: The mice were injected intradermally on day 0 with a mixture containing 100 μg of type II collagen and 100 μg of Mycobacterium tuberculosis in squalene. A booster injection was repeated on day 21. Mice were examined on days 22-27 for arthritic signs with nonresponding mice removed from the study.
Arthritic symptomology was assessed (scored 0-4) for each paw using a arthritic index as described below. Under this arthritic index 0=no visible signs; 1=edema and/or erythema: single digit; 2=edema and or erythema: two joints; 3=edema and or erythema: more than two joints; and 4=severe arthritis of the entire paw and digits associated with ankylosis and deformity.

[3] = system: 3T3-L1 adipocytes; experiment: Adiponectin secretion from TNFα-treated 3T3-L1 adipocytes; assay type: cell-based, murine; conditions: for Concentration eliciting maximum adiponectin secretion: of the doses tested
Protocol: 3T3-L1 cells were seeded at an initial density of 1×10^4 cells/cm^2 in 96-well plates. For two days, the cells were allowed grow to reach confluence. Following confluence, the cells were forced to differentiate into adipocytes by the addition of differentiation medium; this medium consisted of (1) 10% FBS/DMEM (high glucose); (2) 0.5 mM methylisobutylxanthine; (3) 0.5 μM dexamethasone and (4) 10 μg/ml insulin (MDI medium). From Day 3 through Day 5, the medium was changed to post-differentiation medium consisting of 10% FBS in DMEM. […] On Day 6, the supernatant medium was sampled for adiponectin determination.
Statistical Calculations and Interpretation—All assays were preformed in duplicate. […] Differences among the doses and test agents were determined using the Student's t-test without correction for multiple comparisons; the nominal five percent probability of a type I error was selected.

[4] = system: 3T3-L1 adipocytes; experiment: Adiponectin secretion in LPS/3T3-L1 adipocytes; assay type: cell-based, murine; conditions: at the concentration of maximum stimulation; NS = not significantly different from the LPS control
[5] = system: 3T3-L1 adipocytes; experiment: IL-6 secretion in LPS/3T3-L1 adipocytes; assay type: cell-based, murine; conditions: at the concentration of maximum inhibition, with 100 ng LPS/ml

COc1cc(O)c(CC=C(C)C)c(O)c1C(=O)/C=C/c1ccc(O)cc1 [xanthohumol]
adipogenic / lipogenic response compared with controls [1]: comparable to indomethacin and troglitazone

CC(C)CCC1=C(O)C(C(=O)C(C)C)=C(O)C(CCC(C)C)(CCC(C)C)C1=O [hexahydrocolupulone]
adipogenic / lipogenic response compared with controls [1]: failed to elicit a lipogenic response

C[C@]12C=CC(=O)C=C1CC[C@@H]1[C@@H]2[C@@H](O)C[C@@]2(C)[C@H]1CC[C@]2(O)C(=O)CO [prednisolone]
arthritic index [2]: Significant reductions

Cc1c(C)c2c(c(C)c1O)CCC(C)(COc1ccc(CC3SC(=O)NC3=O)cc1)O2 (centres unmarked) [troglitazone]
Concentration eliciting maximum adiponectin secretion ([3]; 10 ng TNFα/ml): 0.625 µg/mL

COc1ccc2c(c1)c(CC(=O)O)c(C)n2C(=O)c1ccc(Cl)cc1 [indomethacin]
% Stimulation (maximum stimulation of adiponectin secretion) [4]: 9% | Concentration eliciting maximum adiponectin secretion ([3]; 2 ng TNFα/ml): 1.25 µg/mL | Concentration eliciting maximum adiponectin secretion ([3]; 10 ng TNFα/ml): 5.0 µg/mL | % Inhibition (maximum inhibition of IL-6 secretion) [5]: 53* %

Beta acids
adipogenic / lipogenic response compared with controls [1]: comparable to indomethacin and troglitazone

CCc1ccc(CCOc2ccc(CC3SC(=O)NC3=O)cc2)nc1 (centres unmarked) [pioglitazone]
maximal adiponectin secretion, times the TNFα treatment ([3]; 10 ng TNFα/ml): 1.47 | Concentration eliciting maximum adiponectin secretion over four doses ([3]; 10 ng TNFα/ml, Acacia catechu #5669 fractions): 1.25 µg/mL
